Activity calls are given as the source filed them. The calls are words filed in the database; no cut-off is given here.
Legend:
[1] = biological target: T1, Protein phosphatase 1D (Homo sapiens) (UniProt O15297); assay: Inhibition of N-terminal histidine-tagged PPM1Dc at 4 uM after 10 mins by BIOMOL GREEN assay
T1 sequence (whole entry): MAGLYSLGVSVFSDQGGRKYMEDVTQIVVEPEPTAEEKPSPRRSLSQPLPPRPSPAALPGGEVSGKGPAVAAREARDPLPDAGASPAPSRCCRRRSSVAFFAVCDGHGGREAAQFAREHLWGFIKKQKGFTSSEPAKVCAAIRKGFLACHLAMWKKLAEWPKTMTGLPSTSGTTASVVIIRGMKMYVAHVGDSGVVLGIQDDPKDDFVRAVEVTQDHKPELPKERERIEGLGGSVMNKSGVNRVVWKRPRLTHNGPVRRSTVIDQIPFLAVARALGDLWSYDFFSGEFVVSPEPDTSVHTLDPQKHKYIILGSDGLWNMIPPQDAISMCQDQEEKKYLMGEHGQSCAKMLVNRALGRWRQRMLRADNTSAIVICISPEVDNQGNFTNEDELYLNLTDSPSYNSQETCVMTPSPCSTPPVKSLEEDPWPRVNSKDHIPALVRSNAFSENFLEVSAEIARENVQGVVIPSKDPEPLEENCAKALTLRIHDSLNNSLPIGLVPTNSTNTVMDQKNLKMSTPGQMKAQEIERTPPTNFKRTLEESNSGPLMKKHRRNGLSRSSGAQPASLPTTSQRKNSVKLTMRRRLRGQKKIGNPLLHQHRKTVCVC

MCF7 [2] = assay: Induction of cell cycle arrest in human MCF7 cells assessed as increase in accumulation at Sub-G1 phase at 40 uM after 1 day by propidium iodide staining-based flow cytometry; format: functional
MCF7 [3] = assay: Induction of cell cycle arrest in human MCF7 cells assessed as accumulation at […] phase at 40 uM after 5 days by propidium iodide staining-based flow cytometry (reference value: 13.8 %); format: functional
MCF7 [4] = assay: Induction of cell cycle arrest in human MCF7 cells assessed as accumulation at Sub-G1 phase at 40 uM after 3 days by propidium iodide staining-based flow cytometry (reference value: 9.4 %); format: functional
MCF7 [5] = assay: Induction of cell cycle arrest in human MCF7 cells assessed as accumulation at Sub-G1 phase at 40 uM by propidium iodide staining-based flow cytometry; format: functional; details: TDE = time-dependent effect
MCF7 [6] = assay: Induction of cell cycle arrest in human MCF7 cells assessed as accumulation at Sub-G1 phase at 40 uM after 5 days by propidium iodide staining-based flow cytometry (reference value: 8.1 %); format: functional
MCF7 [7] = assay: Induction of cell cycle arrest in human MCF7 cells assessed as accumulation at G1 phase at 40 uM after 3 days by propidium iodide staining-based flow cytometry (reference value: 38.5 %); format: functional
MCF7 [8] = assay: Increase in PPM1D protein expression in human MCF7 cells at 10 uM after 24 hrs by immunofluorescence analysis; format: functional, cell-based
MCF7 [9] = assay: Induction of cell cycle arrest in human MCF7 cells assessed as accumulation at G1 phase at 40 uM after 5 days by propidium iodide staining-based flow cytometry (reference value: 57 %); format: functional
Protein phosphatase 1D = biological target: T2, Protein phosphatase 1D (Homo sapiens, UniProt O15297); assay: Inhibition of N-terminal histidine-tagged PPM1Dc after 10 mins using BIOMOL GREEN assay
T2 sequence (O15297 whole entry): T1 sequence (whole entry)

MCF7 [10] = assay: Induction of cell cycle arrest in human MCF7 cells assessed as accumulation at G2/M phase at 40 uM after 3 days by propidium iodide staining-based flow cytometry (reference value: 22.9 %); format: functional
[11] = biological target: T3, Protein phosphatase 1A (Homo sapiens) (UniProt P35813); assay: Inhibition of wild-type PPM1A expressed in BL21(DE3)pLysS cells at 40 uM after 10 mins by BIOMOL GREEN assay; format: cell-based
T3 sequence (whole entry): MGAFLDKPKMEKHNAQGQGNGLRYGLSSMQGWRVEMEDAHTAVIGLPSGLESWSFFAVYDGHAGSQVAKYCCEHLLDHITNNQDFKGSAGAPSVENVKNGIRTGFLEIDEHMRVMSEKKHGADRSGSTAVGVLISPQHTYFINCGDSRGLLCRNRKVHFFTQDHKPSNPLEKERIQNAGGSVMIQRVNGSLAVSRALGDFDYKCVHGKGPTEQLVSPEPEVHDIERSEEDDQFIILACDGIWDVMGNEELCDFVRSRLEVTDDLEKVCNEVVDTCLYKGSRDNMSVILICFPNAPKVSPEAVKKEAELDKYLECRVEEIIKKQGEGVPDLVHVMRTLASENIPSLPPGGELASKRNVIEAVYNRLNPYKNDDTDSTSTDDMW

MCF7 [12] = assay: Induction of cell cycle arrest in human MCF7 cells assessed as accumulation at […] phase at 40 uM after 3 days by propidium iodide staining-based flow cytometry (reference value: 29.3 %); format: functional
A549 = assay: Antiproliferative activity against human A549 cells at 40 uM after 1 to 5 days by trypan blue assay; format: functional, cell-based
MCF7 [13] = assay: Induction of cell cycle arrest in human MCF7 cells assessed as accumulation at G2/M phase at 40 uM after 5 days by propidium iodide staining-based flow cytometry (reference value: 21.2 %); format: functional
MCF7 [14] = assay: Antiproliferative activity against human MCF7 cells overexpressing PPM1D after 1 to 5 days by trypan blue assay; format: functional, cell-based
[15] = biological target: T1, Protein phosphatase 1D (Homo sapiens); assay: Inhibition of PPM1D in human MCF7 cells assessed as increase in p53 phosphorylation at Ser15 by Western blot analysis; format: cell-based
[16] = Selectivity ratio for PPM1Dc over PPM1A
MCF7 [17] = assay: Induction of cell cycle arrest in human MCF7 cells assessed as accumulation at […] phase at 40 uM after 1 day by propidium iodide staining-based flow cytometry (reference value: 24 %); format: functional
MCF7 [18] = assay: Antiproliferative activity against human MCF7 cells overexpressing PPM1D at 40 uM after 1 to 5 days by trypan blue assay; format: functional
MCF7 [19] = assay: Induction of cell cycle arrest in human MCF7 cells assessed as accumulation at G2/M phase at 40 uM after 1 day by propidium iodide staining-based flow cytometry (reference value: 21.4 %); format: functional
MCF7 [20] = assay: Increase in PPM1D protein expression in human MCF7 cells by Western blot analysis; format: functional, cell-based
[21] = biological target: T1, Protein phosphatase 1D (Homo sapiens); assay: Inhibition of PPM1D in UV-irradiated human MCF7 cells assessed as increase in p53 phosphorylation at Ser15 measuring p53 protein level by Western blot analysis; format: cell-based
[22] = Inhibition of PP2A using Ac-DDEMT(P)GYVATR-NH2 as substrate at 40 uM after 10 mins by BIOMOL GREEN assay
MCF7 [23] = assay: Induction of cell cycle arrest in human MCF7 cells assessed as accumulation at G1 phase at 40 uM after 1 day by propidium iodide staining-based flow cytometry (reference value: 45.6 %); format: functional

C[C@H]1C[C@@H](O)[C@H]2C[C@H](O[Si](C)(C)C(C)(C)C)[C@@H]3[C@](C)(CO)C[C@H](O)C[C@@]3(C)[C@@H]2C1
inhibition [1]: 25.1%

CC[Si](CC)(CC)O[C@@H]1C[C@H](C)C[C@@H]2[C@@H]1C[C@H](O[Si](C)(C)C(C)(C)C)[C@H]1[C@@]2(C)C[C@@H]2C[C@@]1(C)C(O)O2 (stereo not given in full)
inhibition [1]: 87.1%

CC[Si](CC)(CC)O[C@@H]1C[C@H](C)C[C@@H]2[C@@H]1C[C@H](O[Si](C)(C)C(C)(C)C)[C@@H]1[C@](C)(CO)C[C@H](O)C[C@@]21C
Activity (MCF7 [2]): 5.3%
Activity (MCF7 [3]): 15%
Activity (MCF7 [4]): 16.4%
Activity (MCF7 [5]): tde
Activity (MCF7 [6]): 25.3%
Activity (MCF7 [7]): 39.3%
Activity (MCF7 [8]): Active
Activity (MCF7 [9]): 46.8%
IC50 (Protein phosphatase 1D): 480 nM
Activity (MCF7 [10]): 28.2%
inhibition [11]: 68%
Activity (MCF7 [12]): 16%
inhibition [1]: 97.1%
Activity (A549): inactive
Activity (MCF7 [13]): 12.9%
Activity (MCF7 [14]): Dose-dependent effect
inhibition [15]: Active
Selectivity ratio [16]: 50
Activity (MCF7 [17]): 29.8%
Activity (MCF7 [18]): >60%
Activity (MCF7 [19]): 16.8%
Activity (MCF7 [20]): Active
inhibition [21]: Active
inhibition [22]: 11%
Activity (MCF7 [23]): 39%

CC[Si](CC)(CC)O[C@@H]1C[C@H](C)C[C@@H]2[C@@H]1C[C@H](O[Si](C)(C)C(C)(C)C)[C@@H]1[C@](C)(CO)CC(=O)C[C@@]21C
inhibition [1]: 79.4%

C[C@H]1C[C@@H](O)[C@H]2C[C@H](O)[C@@H]3[C@](C)(CO)C[C@H](O)C[C@@]3(C)[C@@H]2C1
inhibition [1]: 6.3%
Activity (MCF7 [18]): inactive

— ChEMBL document CHEMBL1938369, “A small molecule inhibitor of p53-inducible protein phosphatase PPM1D” (Bioorg Med Chem Lett, 2012)
